Experimental data published in PubChem BioAssay AID1963958 (Molecular Pharmacology Branch, DTP, NCI, 2024).

Test system: MDA-MB-231 multicell spheroids, viability
Assay: Anticancer human tumor MDA-MB-231 cell line growth inhibition [PI3K];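 further: spheroids exposed to agents for seven days before reading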;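 on viability, T/C: percent of vehicle control luminescence with DMSO treated spheroids as 100%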
Details: for IC50: curve of first compound; for viability, T/C: stronger effect = lower value; active means viability on the fitted dose curve at most 10% of control; inactive means the rest
Outline: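 High-throughput combination screen: PI3K inhibitors crossed with targeted small molecules on complex spheroids of tumor cells, HUVEC and MSCs at 37 degrees C, 5% CO2. Top concentration was at or near clinical Cmax (otherwise 10 microM), with half-log decrements.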

[1] = second compound 0.0316 µM, first compound 0.0316 µM
[2] = second compound 0.0316 µM, first compound 0.1 µM
[3] = second compound 0.0316 µM, first compound 0.316 µM
[4] = second compound 0.0316 µM, first compound 1 µM
[5] = second compound 0.0316 µM, first compound 3.16 µM
[6] = second compound 0.0316 µM, first compound 10 µM
[7] = second compound 0.1 µM, first compound 0.0316 µM
[8] = second compound 0.1 µM, first compound 0.1 µM
[9] = second compound 0.1 µM, first compound 0.316 µM
[10] = second compound 0.1 µM, first compound 1 µM
[11] = second compound 0.1 µM, first compound 3.16 µM
[12] = second compound 0.1 µM, first compound 10 µM
[13] = second compound 0.316 µM, first compound 0.0316 µM
[14] = second compound 0.316 µM, first compound 0.1 µM
[15] = second compound 0.316 µM, first compound 0.316 µM
[16] = second compound 0.316 µM, first compound 1 µM
[17] = second compound 0.316 µM, first compound 3.16 µM
[18] = second compound 0.316 µM, first compound 10 µM
[19] = second compound 1 µM, first compound 0.0316 µM
[20] = second compound 1 µM, first compound 0.1 µM
[21] = second compound 1 µM, first compound 0.316 µM
[22] = second compound 1 µM, first compound 1 µM
[23] = second compound 1 µM, first compound 3.16 µM
[24] = second compound 1 µM, first compound 10 µM

CC1(C)CCC(Nc2ncc(C(F)(F)F)c(-c3c[nH]c4c(P(C)(C)=O)c(C#N)ccc34)n2)CN1 (stereo unspecified) + CC(Nc1ncnc2nc[nH]c12)c1cc2cccc(Cl)c2c(=O)n1-c1ccccc1
active: viability, T/C [6] 5.54% | viability, T/C [12] 5.27% | viability, T/C [18] 6.2% | viability, T/C [24] 4.82% | viability, T/C (second compound 3.16 µM, first compound 10 µM) 4.74%
inactive: viability, T/C [1] 46.4% | viability, T/C [2] 37.8% | viability, T/C [3] 41.4% | viability, T/C [4] 53.5% | viability, T/C [5] 60.6% | viability, T/C [7] 46.3% | viability, T/C [8] 38.5% | viability, T/C [9] 40.7% | viability, T/C [10] 51.6% | viability, T/C [11] 55.6% | viability, T/C [13] 45.7% | viability, T/C [14] 39.4% | viability, T/C [15] 42.5% | viability, T/C [16] 48.6% | viability, T/C [17] 54.2% | viability, T/C [19] 43.9% | viability, T/C [20] 34.7% | viability, T/C [21] 38.6% | viability, T/C [22] 49.4% | viability, T/C [23] 49.6% | viability, T/C (second compound 3.16 µM, first compound 0.0316 µM) 39.8% | viability, T/C (second compound 3.16 µM, first compound 0.1 µM) 37% | viability, T/C (second compound 3.16 µM, first compound 0.316 µM) 42.2% | viability, T/C (second compound 3.16 µM, first compound 1 µM) 44.9% | viability, T/C (second compound 3.16 µM, first compound 3.16 µM) 36% | viability, T/C (second compound 10 µM, first compound 0.0316 µM) 38.4% | viability, T/C (second compound 10 µM, first compound 0.1 µM) 34.6% | viability, T/C (second compound 10 µM, first compound 0.316 µM) 36% | viability, T/C (second compound 10 µM, first compound 1 µM) 33.2% | viability, T/C (second compound 10 µM, first compound 3.16 µM) 35.5% | viability, T/C (second compound 10 µM, first compound 10 µM) 3.53%
< 31.6 nM: IC50 (second compound 1 µM) | IC50 (second compound 3.16 µM) | IC50 (second compound 10 µM)
31.6 nM: IC50 (second compound 0.0316 µM) | IC50 (second compound 0.1 µM) | IC50 (second compound 0.316 µM)

CNC(=O)c1ccc(N2C(=S)N(c3ccc(C#N)c(C(F)(F)F)c3)C(=O)C2(C)C)cc1F + COc1c(OCCCN2CCOCC2)ccc2c3n(c(=NC(=O)c4cnc(N)nc4)nc12)CCN3
< 31.6 nM: IC50 (second compound 0.1 µM) | IC50 (second compound 0.316 µM) | IC50 (second compound 1 µM)
inactive: viability, T/C (second compound 0.00316 µM, first compound 0.0316 µM) 98.3% | viability, T/C (second compound 0.00316 µM, first compound 0.1 µM) 96.5% | viability, T/C (second compound 0.00316 µM, first compound 0.316 µM) 98.9% | viability, T/C (second compound 0.00316 µM, first compound 1 µM) 97.6% | viability, T/C (second compound 0.00316 µM, first compound 3.16 µM) 95.9% | viability, T/C (second compound 0.00316 µM, first compound 10 µM) 81.3% | viability, T/C (second compound 0.01 µM, first compound 0.0316 µM) 82.2% | viability, T/C (second compound 0.01 µM, first compound 0.1 µM) 78.5% | viability, T/C (second compound 0.01 µM, first compound 0.316 µM) 82.5% | viability, T/C (second compound 0.01 µM, first compound 1 µM) 83.7% | viability, T/C (second compound 0.01 µM, first compound 3.16 µM) 72.7% | viability, T/C (second compound 0.01 µM, first compound 10 µM) 64.2% | viability, T/C [1] 63% | viability, T/C [2] 64.5% | viability, T/C [3] 64.8% | viability, T/C [4] 61.7% | viability, T/C [5] 59% | viability, T/C [6] 50.9% | viability, T/C [7] 50.9% | viability, T/C [8] 46.2% | viability, T/C [9] 48.9% | viability, T/C [10] 48.1% | viability, T/C [11] 46.9% | viability, T/C [12] 38.8% | viability, T/C [13] 34.5% | viability, T/C [14] 34.4% | viability, T/C [15] 34.8% | viability, T/C [16] 34.6% | viability, T/C [17] 32.6% | viability, T/C [18] 28.3% | viability, T/C [19] 25.6% | viability, T/C [20] 24.8% | viability, T/C [21] 25% | viability, T/C [22] 24.8% | viability, T/C [23] 25.1% | viability, T/C [24] 22.9%
> 10000 nM: IC50 (second compound 0.00316 µM) | IC50 (second compound 0.01 µM) | IC50 (second compound 0.0316 µM)

Cn1cnc2c(F)c(Nc3ccc(Br)cc3Cl)c(C(=O)NOCCO)cc21 + COc1c(OCCCN2CCOCC2)ccc2c3n(c(=NC(=O)c4cnc(N)nc4)nc12)CCN3
inactive: viability, T/C (second compound 0.00316 µM, first compound 0.00949 µM) 60% | viability, T/C (second compound 0.00316 µM, first compound 0.03 µM) 56.6% | viability, T/C (second compound 0.00316 µM, first compound 0.0949 µM) 52.2% | viability, T/C (second compound 0.00316 µM, first compound 0.3 µM) 47.5% | viability, T/C (second compound 0.00316 µM, first compound 0.949 µM) 41.4% | viability, T/C (second compound 0.00316 µM, first compound 3 µM) 29.7% | viability, T/C (second compound 0.01 µM, first compound 0.00949 µM) 62.1% | viability, T/C (second compound 0.01 µM, first compound 0.03 µM) 46.6% | viability, T/C (second compound 0.01 µM, first compound 0.0949 µM) 42.2% | viability, T/C (second compound 0.01 µM, first compound 0.3 µM) 40.4% | viability, T/C (second compound 0.01 µM, first compound 0.949 µM) 41.7% | viability, T/C (second compound 0.01 µM, first compound 3 µM) 23.6% | viability, T/C (second compound 0.0316 µM, first compound 0.00949 µM) 45% | viability, T/C (second compound 0.0316 µM, first compound 0.03 µM) 43.4% | viability, T/C (second compound 0.0316 µM, first compound 0.0949 µM) 38.9% | viability, T/C (second compound 0.0316 µM, first compound 0.3 µM) 33.1% | viability, T/C (second compound 0.0316 µM, first compound 0.949 µM) 28.8% | viability, T/C (second compound 0.0316 µM, first compound 3 µM) 12.9% | viability, T/C (second compound 0.1 µM, first compound 0.00949 µM) 33.7% | viability, T/C (second compound 0.1 µM, first compound 0.03 µM) 30.3% | viability, T/C (second compound 0.1 µM, first compound 0.0949 µM) 27.3% | viability, T/C (second compound 0.1 µM, first compound 0.3 µM) 27.1% | viability, T/C (second compound 0.1 µM, first compound 0.949 µM) 21% | viability, T/C (second compound 0.1 µM, first compound 3 µM) 7.54% | viability, T/C (second compound 0.316 µM, first compound 0.00949 µM) 24.3% | viability, T/C (second compound 0.316 µM, first compound 0.03 µM) 18.7% | viability, T/C (second compound 0.316 µM, first compound 0.0949 µM) 15.8% | viability, T/C (second compound 0.316 µM, first compound 0.3 µM) 14.4% | viability, T/C (second compound 0.316 µM, first compound 0.949 µM) 12.2% | viability, T/C (second compound 1 µM, first compound 0.00949 µM) 17.7% | viability, T/C (second compound 1 µM, first compound 0.03 µM) 14.2% | viability, T/C (second compound 1 µM, first compound 0.0949 µM) 12.5%
40.7 nM: IC50 (second compound 0.01 µM)
< 9.49 nM: IC50 (second compound 0.0316 µM) | IC50 (second compound 0.1 µM) | IC50 (second compound 0.316 µM) | IC50 (second compound 1 µM)
active: viability, T/C (second compound 0.316 µM, first compound 3 µM) 5.36% | viability, T/C (second compound 1 µM, first compound 0.3 µM) 9.99% | viability, T/C (second compound 1 µM, first compound 0.949 µM) 8.63% | viability, T/C (second compound 1 µM, first compound 3 µM) 4.84%
184 nM: IC50 (second compound 0.00316 µM)
